Counter-ions that a name gives are not always drawn.

Assay [1] concerns the target T1, HCV polymerase (NS5B) type 1a (Hepatitis C virus genotype 1a, UniProt P26664).
T1 construct: made in house; host or cells: Escherichia coli (by the 'similar method' of the 1b enzyme)
Description: Assay of enzyme (HCV polymerase) inhibitory activity, type 1a enzyme. Format: biochemical, HCV type 1a (cloned from the blood of patients). The conditions noted are these: HCV polymerase inhibitory activity (IC50), 1a, type 1a enzyme 1.5 μg/ml, 25° C., 60 min. The method in brief:
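His-tagged NS5B, C-terminal 47 residues deleted, type 1a at 1.5 μg/ml, with 5 μg/ml HCV 3′UTR substrate RNA, 50 μM ATP/GTP/CTP, 2 μM UTP plus [3H]UTP, pH 7.5 Tris, 5 mM MgCl2; 60 min at 25° C. TCA-precipitated RNA counted by scintillation; IC50 from radioactivity with vs. without compound.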

Assay [2] deals with T2, HCV polymerase (NS5B) type 1b (Hepatitis C virus genotype 1b, UniProt P26663).
T2 construct: a region encoding NS5B (J Virol 1991 March, 65(3), 1105-13, 544 amino acids after deletion of 47 amino acids on the C-terminal); 6xHis (C); made in house; host or cells: Escherichia coli
Briefly: Assay of enzyme (HCV polymerase) inhibitory activity, type 1b enzyme. It counts as biochemical, HCV BK strain (type 1b). The conditions noted are these: HCV polymerase inhibitory activity (IC50), 1b, type 1b enzyme 0.5 μg/ml, 25° C., 60 min. The method in brief: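 His-tagged, C-terminally truncated NS5B (BK strain, 1b; 0.5 μg/ml) incubated with compound 60 min at 25 °C on 3′UTR-derived substrate RNA (5 μg/ml), 50 μM ATP/GTP/CTP, 2 μM UTP plus [3H]UTP, pH 7.5. Acid-precipitated RNA counted; IC50 from radioactivity with and without compound.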

As usually defined, the IC50 is the midpoint of a concentration-inhibition curve. Low values mean greater potency, high ones weaker potency. In the case of `CC(C)c1ccc(CNC(=O)[C@H]2CN(C(=O)NCc3ccccc3)CCN2S(=O)(=O)c2ccc(C(F)(F)F)cc2)cc1` [Example 243, (R)-4-(4-trifluoromethyl-benzenesulfonyl)-piperazine-1,3-dicarboxylic acid 1-benzylamide 3-(4-isopropyl-benzylamide)], the IC50 in assay [1] and in assay [2] was more than 1000 nM in each case.

`CC(C)c1ccc(CNC(=O)[C@H]2CN(c3nc(C(=O)O)cs3)CCN2S(=O)(=O)c2ccc(C(F)(F)F)cc2)cc1` [Example 244, 2-[(R)-3-(4-isopropyl-benzylcarbamoyl)-4-(4-trifluoromethyl-benzenesulfonyl)-piperazin-1-yl]-thiazole-4-carboxylic acid]: the IC50 in assay [1] and in assay [2] was 100 to 1000 nM each time.

In the case of `CCOC(=O)COc1ccc(NC(=O)N2CCN(S(=O)(=O)c3ccc(C(F)(F)F)cc3)[C@@H](C(=O)NCc3ccc(C(C)C)cc3)C2)cc1` [Example 245, (4-{[(R)-3-(4-isopropyl-benzylcarbamoyl)-4-(4-trifluoromethyl-benzenesulfonyl)-piperazine-1-carbonyl]-amino}-phenoxy)-acetic acid ethyl ester], the results for the 50% inhibitory concentration (IC50) in assay [1] and in assay [2] were more than 1000 nM and 100 to 1000 nM, respectively.

`CC(C)c1ccc(CNC(=O)[C@H]2CN(C(=O)Nc3ccc(OCC(=O)O)cc3)CCN2S(=O)(=O)c2ccc(C(F)(F)F)cc2)cc1` [Example 246, (4-{[(R)-3-(4-isopropyl-benzylcarbamoyl)-4-(4-trifluoromethyl-benzenesulfonyl)-piperazine-1-carbonyl]-amino}-phenoxy)-acetic acid]: the figures for the IC50 in assay [1] and in assay [2] were more than 1000 nM and 100 to 1000 nM, respectively.

In the case of `CCCc1ccc(S(=O)(=O)N2CCN(C(C)=O)C[C@@H]2C(=O)NCc2ccc(CC)cc2)cc1` [Example 247, (R)-4-acetyl-1-(4-propyl-benzenesulfonyl)-piperazine-2-carboxylic acid 4-ethyl-benzylamide], the IC50 in assay [1] is 100 to 1000 nM; in assay [2] it was less than 100 nM.

Turning to `COc1ccc(S(=O)(=O)N2CCN(C(C)=O)C[C@@H]2C(=O)NCc2ccc(C(C)C)cc2)cc1C(=O)O` [Example 248, 5-[(R)-4-acetyl-2-(4-isopropyl-benzylcarbamoyl)-piperazine-1-sulfonyl]-2-methoxy-benzoic acid], the half-inhibitory concentration (IC50) was more than 1000 nM in assay [1] and 100 to 1000 nM in assay [2].

Turning to `CC(=O)N1CCN(S(=O)(=O)c2ccc(OCC(=O)O)cc2)[C@@H](C(=O)NCc2ccc(C(C)C)cc2)C1` [Example 249, {4-[(R)-4-acetyl-2-(4-isopropyl-benzylcarbamoyl)-piperazine-1-sulfonyl]-phenoxy}-acetic acid], the IC50 in assay [1] and in assay [2] was more than 1000 nM throughout.

As for `COC(=O)CCOc1ccc(S(=O)(=O)N2CCN(C(C)=O)C[C@@H]2C(=O)NCc2ccc(C(C)C)cc2)cc1` [Example 250, 3-{4-[(R)-4-acetyl-2-(4-isopropyl-benzylcarbamoyl)-piperazine-1-sulfonyl]-phenoxy}-propionic acid methyl ester], the IC50 in assay [1] and in assay [2] was 100 to 1000 nM in each case.

For `CC(=O)N1CCN(S(=O)(=O)c2ccc(O)cc2)[C@@H](C(=O)NCc2ccc(C(C)C)cc2)C1` [Example 251, (R)-4-acetyl-1-(4-hydroxy-benzenesulfonyl)-piperazine-2-carboxylic acid 4-isopropyl-benzylamide], the IC50 in assay [1] and in assay [2] was more than 1000 nM throughout.

`COC(=O)CCC(=O)NCC(=O)N1CCN(S(=O)(=O)c2ccc(C(F)(F)F)cc2)[C@@H](C(=O)NCc2ccc(C(C)C)cc2)C1` [Example 252, N-{2-[(R)-3-(4-isopropyl-benzylcarbamoyl)-4-(4-trifluoromethyl-benzenesulfonyl)-piperazin-1-yl]-2-oxo-ethyl}-succinamic acid methyl ester]: the concentration for half-maximal inhibition (IC50) in assay [1] and in assay [2] was 100 to 1000 nM throughout.

For `CC(=O)N1CCN(S(=O)(=O)c2ccc(C(C)C)cc2)[C@@H](C(=O)NCc2ccc(C(C)(C)C)cc2)C1` [Example 253, (R)-4-acetyl-1-(4-isopropyl-benzenesulfonyl)-piperazine-2-carboxylic acid 4-tert-butyl-benzylamide], the IC50 in assay [1] and in assay [2] was less than 100 nM each time.

For `COC(=O)c1sc(N2CCN(S(=O)(=O)c3ccc(C(F)(F)F)cc3)[C@@H](C(=O)NCc3ccc(C(C)C)cc3)C2)nc1C` [Example 254, 2-[(R)-3-(4-isopropyl-benzylcarbamoyl)-4-(4-trifluoromethyl-benzenesulfonyl)-piperazin-1-yl]-4-methyl-thiazole-5-carboxylic acid methyl ester], the IC50 in assay [1] is 100 to 1000 nM; in assay [2], less than 100 nM.

Regarding `COC(=O)Cc1csc(N2CCN(S(=O)(=O)c3ccc(C(F)(F)F)cc3)[C@@H](C(=O)NCc3ccc(C(C)C)cc3)C2)n1` [Example 255, {2-[(R)-3-(4-isopropyl-benzylcarbamoyl)-4-(4-trifluoromethyl-benzenesulfonyl)-piperazin-1-yl]-thiazol-4-yl}-acetic acid methyl ester], the half-maximal inhibitory concentration (IC50) in assay [1] and in assay [2] was less than 100 nM throughout.

`CCOC(=O)COc1cccc(NC(=O)N2CCN(S(=O)(=O)c3ccc(C(F)(F)F)cc3)[C@@H](C(=O)NCc3ccc(C(C)C)cc3)C2)c1` [Example 256, (3-{[(R)-3-(4-isopropyl-benzylcarbamoyl)-4-(4-trifluoromethyl-benzenesulfonyl)-piperazine-1-carbonyl]-amino}-phenoxy)-acetic acid ethyl ester]: the IC50 in assay [1] and in assay [2] was 100 to 1000 nM in each case.

On to `CC(C)c1ccc(CNC(=O)[C@H]2CN(C(=O)Cn3cnnn3)CCN2S(=O)(=O)c2ccc(C(F)(F)F)cc2)cc1` [Example 257, (R)-4-(2-tetrazol-1-yl-acetyl)-1-(4-trifluoromethyl-benzenesulfonyl)-piperazine-2-carboxylic acid 4-isopropyl-benzylamide], for which the 50% inhibitory concentration (IC50) in assay [1] and in assay [2] was less than 100 nM each time.

Take `CC(C)c1ccc(CNC(=O)[C@H]2CN(C(=O)CC#N)CCN2S(=O)(=O)c2ccc(C(F)(F)F)cc2)cc1` [Example 258, (R)-4-(2-cyano-acetyl)-1-(4-trifluoromethyl-benzenesulfonyl)-piperazine-2-carboxylic acid 4-isopropyl-benzylamide]: the IC50 in assay [1] and in assay [2] was less than 100 nM each time.

For `CC(C)c1ccc(CNC(=O)[C@H]2CN(c3nc(CC(=O)O)cs3)CCN2S(=O)(=O)c2ccc(C(F)(F)F)cc2)cc1` [Example 259, {2-[(R)-3-(4-isopropyl-benzylcarbamoyl)-4-(4-trifluoromethyl-benzenesulfonyl)-piperazin-1-yl]-thiazol-4-yl}-acetic acid], the IC50 was 100 to 1000 nM in assay [1] and less than 100 nM in assay [2].

As to `CC(C)c1ccc(CNC(=O)[C@H]2CN(C(=O)Nc3cccc(OCC(=O)O)c3)CCN2S(=O)(=O)c2ccc(C(F)(F)F)cc2)cc1` [Example 260, (3-{[(R)-3-(4-isopropyl-benzylcarbamoyl)-4-(4-trifluoromethyl-benzenesulfonyl)-piperazine-1-carbonyl]-amino}-phenoxy)-acetic acid], the IC50 in assay [1] and in assay [2] was 100 to 1000 nM in each case.

On to `CC(C)c1ccc(CNC(=O)[C@H]2CN(C(=O)Cc3nnn[nH]3)CCN2S(=O)(=O)c2ccc(C(F)(F)F)cc2)cc1` [Example 261, (R)-4-(2-1H-tetrazol-5-yl-acetyl)-1-(4-trifluoromethyl-benzenesulfonyl)-piperazine-2-carboxylic acid 4-isopropyl-benzylamide], for which the half-maximal inhibitory concentration (IC50) in assay [1] is more than 1000 nM; in assay [2], 100 to 1000 nM.

For the compound `CN(C)c1ccc(CNC(=O)[C@H]2CN(C(=O)CN)CCN2S(=O)(=O)c2ccc(C(F)(F)F)cc2)cc1` [Example 262, (R)-4-(2-amino-acetyl)-1-(4-trifluoromethyl-benzenesulfonyl)-piperazine-2-carboxylic acid 4-dimethylamino-benzylamide dihydrochloride], the IC50 in assay [1] and in assay [2] was more than 1000 nM throughout.

As for `CC(=O)N1CCN(S(=O)(=O)c2cccc(C(F)(F)F)c2)[C@@H](C(=O)NCc2ccc(C(C)C)cc2)C1` [Example 263, (R)-4-acetyl-1-(3-trifluoromethyl-benzenesulfonyl)-piperazine-2-carboxylic acid 4-isopropyl-benzylamide], the IC50 in assay [1] and in assay [2] was 100 to 1000 nM each time.

Take `CC(=O)N1CCN(S(=O)(=O)c2ccc3c(c2)CCCCC3)[C@@H](C(=O)NCc2ccc(C(C)C)cc2)C1` [Example 264, (R)-4-acetyl-1-(6,7,8,9-tetrahydro-5H-benzocycloheptene-2-sulfonyl)-piperazine-2-carboxylic acid 4-isopropyl-benzylamide]: the IC50 in assay [1] and in assay [2] was less than 100 nM throughout.

Take `CC(C)c1ccc(CNC(=O)[C@H]2CN(C(=O)NS(=O)(=O)c3ccccc3)CCN2S(=O)(=O)c2ccc(C(F)(F)F)cc2)cc1` [Example 265, (R)-4-benzenesulfonylaminocarbonyl-1-(4-trifluoromethyl-benzenesulfonyl)-piperazine-2-carboxylic acid 4-isopropyl-benzylamide]: the IC50 in assay [1] and in assay [2] was more than 1000 nM each time.

The values above are taken from patent US8017612B2, “Piperazine compound and use thereof as a HCV polymerase inhibitor” (priority 2006, dated 2011).
